Data: patent US11845990B2, “Prediction of sleep parameter and response to sleep-inducing compound based on PER3 VNTR genotype” (Vanda Pharmaceuticals Inc., priority 2007, dated 2023)

Tests used:
[1] = system: healthy male and female subjects with induced transient insomnia; assay: Induced transient insomnia clinical study (first night effect plus 5-hour phase advance), polysomnography, by PER3 VNTR genotype; assay type: in vivo, human; parameters: greater sleep efficiency over subjects on placebo (full night) / lower sleep efficiency than subjects on placebo (full night) / sleep efficiency higher than in placebo, first third of the night / sleep efficiency higher than in placebo, second third of the night / sleep efficiency lower than in placebo, first third of the night / sleep efficiency lower than in placebo, second third of the night: concentration or dose not given beside the values
Text: The effect of this polymorphism was investigated with respect to various sleep parameters (latency to persistent sleep, wake after sleep onset, sleep efficiency), which evaluated objectively by polysomnography in healthy subjects treated with (1R-trans)-N-[[2-(2,3-dihydro-4-benzofuranyl)cyclopropyl]methyl]propanamide, or treated with a placebo, in a clinical protocol that models transient insomnia.
Transient insomnia can be induced in a laboratory setting as a result of a “first night effect” in which sleep onset and sleep maintenance are disrupted in normal sleeping adults by sleeping in an unfamiliar surrounding. This model of transient insomnia has been validated in several studies of normal sleeping adults. Insomnia can also be precipitated by other factors such as traveling across multiple time zones (jet lag). This condition can be reproduced in a sleep laboratory by forcing an earlier bedtime (phase advance). The study reported here used both, the first night effect and a 5-hour phase advance component, to increase the likelihood that transient insomnia will be induced. A multi-center, randomized, double-blind, placebo-controlled, parallel study was conducted to investigate the efficacy and safety of a single oral dose of (1R-trans)-N-[[2-(2,3-dihydro-4-benzofuranyl)cyclopropyl]methyl]propanamide (20 mg, 50 mg, and 100 mg) and matching placebo in healthy male and female subjects with induced transient insomnia. […] Latency to Persistent Sleep (LPS), Wake After Sleep Onset (WASO) and sleep efficiency (SE) were evaluated objectively by use of polysomnography.
More than 70% of subjects who enrolled in the clinical trial consented to the optional PG study. From those, 288 were genotyped for the PER3 VNTR polymorphism.

[2] = Solubility and pH of saturated solution; assay type: physicochemical
healthy volunteers = assay: Previous tolerability studies in healthy volunteers; assay type: in vivo

SMILES: CCC(=O)NC[C@@H]1C[C@H]1c1cccc2c1CCO2 [(1R-trans)-N-[[2-(2,3-dihydro-4-benzofuranyl)cyclopropyl]methyl]propanamide]
- shorter LPS period than with placebo ([1]; PER3 4/4 and 4/5 genotypes): 30 min
- shorter LPS period than with placebo (percent) ([1]; PER3 4/4 and 4/5 genotypes): 56%
- smaller WASO than with placebo ([1]; PER3 4/4 and 4/5 genotypes): 21 min
- smaller WASO than with placebo (percent) ([1]; PER3 4/4 and 4/5 genotypes): 16%
- sleep efficiency higher than in placebo, first third of the night ([1]; PER3 4/4 and 4/5 genotypes, first third of night): 29%
- greater sleep efficiency over subjects on placebo (full night) ([1]; PER3 4/4 and 4/5 genotypes, full night): 12%
- sleep efficiency higher than in placebo, second third of the night ([1]; PER3 4/4 and 4/5 genotypes, second third of night): 22.8%
- longer WASO than with placebo ([1]; PER3 5/5 genotype): 32 min
- longer WASO than with placebo (percent) ([1]; PER3 5/5 genotype): 32.7%
- shorter LPS than with placebo ([1]; PER3 5/5 genotype): 8 min
- shorter LPS than with placebo (percent) ([1]; PER3 5/5 genotype): 27%
- sleep efficiency lower than in placebo, first third of the night ([1]; PER3 5/5 genotype, first third of night): 7.2%
- lower sleep efficiency than subjects on placebo (full night) ([1]; PER3 5/5 genotype, full night): 9.5%
- sleep efficiency lower than in placebo, second third of the night ([1]; PER3 5/5 genotype, second third of night): 3.4%
- efficacy in improving LPS, WASO, and Sleep Efficiency ([1]; single oral dose 20, 50 or 100 mg, induced transient insomnia, vs placebo): efficacious
- sleep efficiency improvement in the third part of the night ([1]; third third of night, vs placebo): no improvement
- solubility in organic solvents ([2]; 95% ethanol, methanol, acetonitrile, ethyl acetate, isopropanol, polyethylene glycols (PEG-300 and PEG-400)): very soluble or freely soluble
- native pH of a saturated solution in water ([2]; saturated solution in water): 8.5
- effect of pH on aqueous solubility ([2]; water): practically unaffected by pH
- solubility in water ([2]; water): only slightly soluble
- tolerability, multiple doses (healthy volunteers; multiple doses (up to 28 days) up to 150 mg): well-tolerated
- tolerability, single doses (healthy volunteers; single doses up to 300 mg): well-tolerated
